Data: ChEMBL document CHEMBL4038264, “Nabscessins A and B, Aminocyclitol Derivatives from Nocardia abscessus IFM 10029T” (J Nat Prod, 2017)
Converted amounts (≈) assume the structure as drawn. *1 amine or outer side, *2 acyl side, *3 side chain or, on linkers, in order; H or OH if unused. Where a SMILES comes first, the peptide text is derived from it. Bridges are numbered along the chain shown (N, C = ends). [ ]: non-standard residue; d: D form. The star is where a group is joined. hTyr(3S-OH,4S-OH,3'-OSO3H) = N[C@H](C(=O)O)[C@H](O)[C@@H](O)c1ccc(O)c(OS(=O)(=O)O)c1; Orn(4R-OH,5R-OH) = O=C([C@H](C[C@@H](O)[C@@H](O)N[*:3])N[*:1])[*:2]; Pro(3S-OH,4S-Me) = C[C@H]1CN[C@H](C(=O)O)[C@H]1O; X1 = CCCCCOc1ccc(-c2cc(-c3ccc(C(=O)*)cc3)no2)cc1; Gln(3R-OH) = NC(=O)C[C@@H](O)[C@H](N)C(=O)O; Hyp = O=C(O)[C@@H]1C[C@@H](O)CN1

Tests used:
Assay type in all cases: functional
Bacillus subtilis = assay: Antibacterial activity against Bacillus subtilis after 48 hrs by broth micro-dilution method
Aspergillus niger = assay: Antifungal activity against Aspergillus niger after 96 hrs by broth micro-dilution method
Micrococcus luteus = assay: Antibacterial activity against Micrococcus luteus after 48 hrs by broth micro-dilution method
[1] = test system: Trichophyton mentagrophytes; assay: Antifungal activity against Trichophyton mentagrophytes after 96 hrs by broth micro-dilution method
Candida albicans = assay: Antifungal activity against Candida albicans after 48 hrs by broth micro-dilution method
Escherichia coli = assay: Antibacterial activity against Escherichia coli after 48 hrs by broth micro-dilution method
Cryptococcus neoformans = assay: Antifungal activity against Cryptococcus neoformans after 96 hrs by broth micro-dilution method
Staphylococcus aureus = assay: Antibacterial activity against Staphylococcus aureus after 48 hrs by broth micro-dilution method

Row | Compound | MIC (Bacillus subtilis) [µg/mL] | IC50 (Aspergillus niger) [µg/mL] | MIC (Micrococcus luteus) [µg/mL] | IC50 [1] [µg/mL] | IC50 (Candida albicans) [µg/mL] | MIC (Escherichia coli) [µg/mL] | IC50 (Cryptococcus neoformans) [µg/mL] | MIC (Staphylococcus aureus) [µg/mL]
1 | Cc1cccc(O)c1C(=O)O[C@@H]1[C@@H](O)[C@H](O)[C@@H](NC(=O)c2cccc(O)c2)C[C@H]1OC(N)=O | > 32 | > 32 | > 32 | > 32 | > 32 | > 32 | 32 (≈ 69.5 µM) | > 32
2 | CN[C@H]1C[C@@H](N)[C@H](O)[C@@H](O[C@@H]2O[C@H](CO)[C@H](O)[C@@H]3O[C@@]4(O[C@H]23)O[C@H]([C@@H](N)CO)[C@H](O)[C@H](O)[C@H]4O)[C@@H]1O | 2 (≈ 3.79 µM) | 1 (≈ 1.9 µM) | 1 (≈ 1.9 µM) | 1 (≈ 1.9 µM) | 3.9 (≈ 7.39 µM) | 2 (≈ 3.79 µM) | 3.9 (≈ 7.39 µM) | 0.5 (≈ 0.948 µM)
3 | Cc1cccc(O)c1C(=O)O[C@H]1[C@H](O)[C@@H](O)[C@H](OC(N)=O)C[C@@H]1NC(=O)c1cccc(O)c1 | > 32 | > 32 | > 32 | > 32 | > 32 | > 32 | 16 (≈ 34.7 µM) | > 32
4 | C[C@@H]1[C@H](O)[C@@H](C)/C=C/C=C/C=C/C=C/C=C/C=C/C=C/[C@H](O[C@@H]2O[C@H](C)[C@@H](O)[C@H](N)[C@@H]2O)C[C@@H]2O[C@](O)(C[C@@H](O)C[C@@H](O)[C@H](O)CC[C@@H](O)C[C@@H](O)CC(=O)O[C@H]1C)C[C@H](O)[C@H]2C(=O)O [AMPHOTERICIN B] | > 31.2 | 1.8 (≈ 1.95 µM) | > 31.2 | 3.9 (≈ 4.22 µM) | 1 (≈ 1.08 µM) | > 31.2 | < 0.05 | > 31.2
5 | NC[C@H]1O[C@H](O[C@H]2[C@H](O)[C@@H](O[C@H]3O[C@H](CO)[C@@H](O)[C@H](N)[C@H]3O)[C@H](N)C[C@@H]2N)[C@H](O)[C@@H](O)[C@@H]1O [KANAMYCIN] | < 0.1 | 31.3 (≈ 64.6 µM) | 1 (≈ 2.06 µM) | 7.8 (≈ 16.1 µM) | > 62.5 | < 0.1 | 7.8 (≈ 16.1 µM) | < 0.1
6 | CCCCCOc1ccc(-c2cc(-c3ccc(C(=O)N[C@H]4C[C@@H](O)[C@@H](O)NC(=O)[C@@H]5[C@@H](O)[C@@H](C)CN5C(=O)[C@H]([C@H](O)CC(N)=O)NC(=O)[C@H]([C@H](O)[C@@H](O)c5ccc(O)c(OS(=O)(=O)O)c5)NC(=O)[C@@H]5C[C@@H](O)CN5C(=O)[C@H]([C@@H](C)O)NC4=O)cc3)no2)cc1 [MICAFUNGIN] (X1-[Orn(4R-OH,5R-OH)]T[Hyp][hTyr(3S-OH,4S-OH,3'-OSO3H)][Gln(3R-OH)][Pro(3S-OH,4S-Me)]; lactam 1-C) | 0.5 (≈ 0.394 µM) | < 0.1 | 7.8 (≈ 6.14 µM) | < 0.1 | < 0.1 | > 62.5 | < 0.1 | 0.5 (≈ 0.394 µM)
